Experimental data: patent US8273775B2, “Non-steroidal brassinosteroid mimetic” (priority 2006, dated 2012)

Key:
GST-BIN2 = target: T1, GST-BIN2 (Arabidopsis thaliana, UniProt Q39011); assay: SPR analysis of binding to immobilized GST-BIN2
T1 sequence (Q39011 1-380): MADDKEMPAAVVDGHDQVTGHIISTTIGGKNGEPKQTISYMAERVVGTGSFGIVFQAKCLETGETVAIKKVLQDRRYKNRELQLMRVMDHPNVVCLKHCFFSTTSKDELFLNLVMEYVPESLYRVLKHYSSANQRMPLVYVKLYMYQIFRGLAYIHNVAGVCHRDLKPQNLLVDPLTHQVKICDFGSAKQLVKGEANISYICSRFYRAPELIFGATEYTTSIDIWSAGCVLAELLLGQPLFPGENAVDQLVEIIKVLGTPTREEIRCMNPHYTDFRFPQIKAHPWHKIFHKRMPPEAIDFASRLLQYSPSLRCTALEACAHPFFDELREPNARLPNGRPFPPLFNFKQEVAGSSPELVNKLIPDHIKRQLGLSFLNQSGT
Protocol: FIG. 13: Abrasin directly interacts with BIN2. SPR sensorgrams for abrasin binding to GST-BIN2 after injection of different abrasin concentrations as indicated. […] Reference and blank data are subtracted. The experiment was performed in triplicate. Biacore T100 was used to analyze interaction of abrasion with BIN2. Using amine coupling, purified GST-BIN2 was immobilized in the flow cell of a Series S CM5 Sensor Chip (Research Grade, Biacore AB). HBS-EP (Biacore AB) was used as running buffer, flow rate was set at 5 μl/min. The surface of the chip was activated by injecting a mixture of EDC (0.2 M) and NHS (0.05 M) for 10 min. Subsequently, 20 μg/ml GST-BIN2 in 10 mM sodium acetate buffer (pH 6.0) was injected for 20 min. The immobilization level of GST-BIN2 was≈20,000 RU. The chip was then flushed with 1 M ethanolamine (pH 8.5) for 10 min to deactivate the surface. A flow cell treated with a cycle of activation and deactivation without immobilized ligand was used as a reference. […] Different concentrations of abrasin were injected at a flow rate of 30 μl/min over the reference and the GST-BIN2 flow cell for 90 s, followed by 180 s of buffer flow (dissociation phase). Zero concentration samples were used as blanks. The flow cell temperature was set to 25° C.

[1] = tested on: group II GSK-3 kinases (ASKs) including BIN2; assay: ASK kinase assay with MBP as substrate, group II; assay type: biochemical, Arabidopsis; details: 10 μM abrasin
Protocol: (§1) Coomassie staining was used as a loading control. b, Autoradiography of kinase assays with nine ASKs with MBP as a substrate in the presence or absence of 10 μM abrasin. The second member of group IV, ASKκ, had no kinase activity and was not included in the analysis. c, Autoradiography of kinase assays with AtMPK4, AtMPK6 and MBP as a substrate (left) and with AtAUR1 kinase and histone H3 as a substrate (right) in the presence or absence of 10 μM abrasin.
(§2) For in vitro kinase assays, MBP, MBP-BES1, and MBP-bes1 (20 ng each) were incubated with GST-BIN2 or GST-BRI1 kinase (200 ng each) in 20 μl of kinase buffer (20 mM Tris [pH 7.5], 100 mM NaCl, and 12 mM MgCl2) and 10 μCi ^32P-γATP. After incubation at 37° C. for 40 min, the reactions were stopped by adding 20 μl of 2×SDS buffer and boiling at 94° C. for 5 min. Proteins were resolved by a PAGE gel and phosphorylation was detected by exposing the dried gel to X-ray film. […]
(§3) Besides BIN2, nine additional GSK-3 kinases (also designated ASKs for Arabidopsis SHAGGY-related kinases) divided into four subgroups (I-IV) have been identified in Arabidopsis (Jonak and Hirt, 2002; Yoo et al. 2006). To determine the specificity of abrasin, its effect on the kinase activity of all ASKs was analyzed with myelin basic protein (MBP) as a general substrate. […]

AtMPK4 = target: T2, AtMPK4 (Arabidopsis thaliana, UniProt Q39024); assay: Kinase assay with AtMPK4 and MBP as substrate; assay type: biochemical; details: 10 μM abrasin
T2 sequence (Q39024 1-376): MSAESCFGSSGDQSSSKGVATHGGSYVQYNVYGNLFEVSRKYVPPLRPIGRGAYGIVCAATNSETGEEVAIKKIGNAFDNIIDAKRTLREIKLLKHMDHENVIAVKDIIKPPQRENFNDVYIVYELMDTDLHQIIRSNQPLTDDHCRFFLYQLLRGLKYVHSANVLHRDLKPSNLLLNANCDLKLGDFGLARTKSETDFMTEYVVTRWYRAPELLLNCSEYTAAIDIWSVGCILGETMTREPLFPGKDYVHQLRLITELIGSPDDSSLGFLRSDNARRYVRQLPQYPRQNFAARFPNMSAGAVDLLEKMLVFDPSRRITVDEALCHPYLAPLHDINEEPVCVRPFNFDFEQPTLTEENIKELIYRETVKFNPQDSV
Protocol: as §1, §2, §3

AtMPK6 = AtMPK6 (Arabidopsis thaliana, UniProt Q39026); assay: Kinase assay with AtMPK6 and MBP as substrate; assay type: biochemical; details: 10 μM abrasin
Protocol: as §1, §2, §3

AtAUR1 = target: T3, AtAUR1 (Arabidopsis thaliana, UniProt Q9M077); assay: Kinase assay with AtAUR1 and histone H3 as substrate; assay type: biochemical; details: 10 μM abrasin
T3 sequence (Q9M077 1-294): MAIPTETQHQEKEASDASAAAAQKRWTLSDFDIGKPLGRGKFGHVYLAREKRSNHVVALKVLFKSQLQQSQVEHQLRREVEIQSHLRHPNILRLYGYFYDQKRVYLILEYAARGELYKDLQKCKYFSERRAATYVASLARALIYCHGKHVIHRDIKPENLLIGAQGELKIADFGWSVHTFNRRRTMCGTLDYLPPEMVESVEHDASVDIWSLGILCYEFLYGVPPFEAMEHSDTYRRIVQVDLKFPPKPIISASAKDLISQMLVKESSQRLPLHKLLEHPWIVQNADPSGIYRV
Protocol: as §1, §2, §3

Sequence of AtMPK6 (Q39026 whole entry): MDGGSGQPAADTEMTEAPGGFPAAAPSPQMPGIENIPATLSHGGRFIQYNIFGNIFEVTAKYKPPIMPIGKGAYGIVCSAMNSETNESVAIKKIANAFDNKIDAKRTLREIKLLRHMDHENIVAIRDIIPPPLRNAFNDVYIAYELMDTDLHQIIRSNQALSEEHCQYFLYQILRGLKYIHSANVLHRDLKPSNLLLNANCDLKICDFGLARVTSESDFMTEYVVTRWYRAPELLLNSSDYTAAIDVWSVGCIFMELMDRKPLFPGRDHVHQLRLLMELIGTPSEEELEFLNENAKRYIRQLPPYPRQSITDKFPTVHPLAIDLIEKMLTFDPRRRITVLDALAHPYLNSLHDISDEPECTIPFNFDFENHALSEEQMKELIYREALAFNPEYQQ

## O=C(O)CCC(=O)Nc1ccc(Br)cn1 [abrasin, 4-[(5-bromo-2-pyridinyl)amino]-4-oxobutanoic acid]
GST-BIN2
  concentration from which a clear SPR response starts: ≥ 10 µM
GST-BIN2; 1:1 interaction model, 25° C.
  Kd: 199 µM
  kd: 0.081 s⁻¹
GST-BIN2; 1:1 interaction model, 25° C., read-out: ka
  kon: 407 M⁻¹ s⁻¹
[1]
  residual activity: 1-2
AtMPK4
  effect on kinase activity: no effect
AtMPK6
  effect on kinase activity: no effect
AtAUR1
  effect on kinase activity: no effect
